T/C data for 18 compounds are collected here from PubChem BioAssay AID192 (DTP/NCI, 2004).

Where “and” joins values, the source holds several entries; their conditions need not be identical. Identical values can stand only once. Toxic doses and inconclusive results are not listed.

For the assay, the system named is BDF1 mice, B16 melanoma ip, median survival T/C. As to the kind of experiment: NCI In Vivo Anticancer Drug Screen. Data for tumor model B16 Melanoma (intraperitoneal) in B6D2F1 (BDF1) mice. The conditions noted are these: endpoint: median survival time, higher = longer survival. In outline:
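Mice with transplantable tumors; drug vs vehicle groups; endpoint survival or tumor size; value = T/C.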

[1] abbreviates: dose: 12.5 mg/kg/injection, schedule: Q01DX009 (ip), vehicle: saline.
[2] abbreviates: dose: 25.0 mg/kg/injection, schedule: Q01DX009 (ip), vehicle: saline.
The mark [3] stands for this setting: dose: 50.0 mg/kg/injection, schedule: Q01DX009 (ip), vehicle: saline.
The mark [4] stands for this setting: dose: 100.0 mg/kg/injection, schedule: Q01DX009 (ip), vehicle: saline.
[5] abbreviates: dose: 200.0 mg/kg/injection, schedule: Q01DX009 (ip), vehicle: saline.
[6] abbreviates: dose: 25.0 mg/kg/injection, schedule: Q01DX009 (ip), vehicle: saline with Tween-80.
Where [7] appears, read: dose: 50.0 mg/kg/injection, schedule: Q01DX009 (ip), vehicle: saline with Tween-80.

Turning to `NCC1OC(OC2C(N)CC(N)C(O)C2OC2OC(CO)C(O)C2O)C(N)C(O)C1O` (centres undefined), the T/C was 93 % of control under setting [1], 100 % of control under setting [2], 93 % of control under setting [3] and 96 % of control under setting [4].

In the case of `CNC(=O)Oc1ccc2c(c1)OCO2`, the T/C reads like this: under setting [3], 95 % of control; under setting [4], 114 % of control; under setting [5], 107 % of control.

In the case of `CC(Cc1ccc2c(c1)OCO2)C(C)Cc1ccc2c(c1)OCO2` (centres undefined), the T/C reads like this: (dose: 100.0 mg/kg/injection, schedule: Q01DX009 (ip), vehicle: other) 94 % of control; (dose: 200.0 mg/kg/injection, schedule: Q01DX009 (ip), vehicle: other) 89 % of control; (dose: 400.0 mg/kg/injection, schedule: Q01DX009 (ip), vehicle: other) 89 % of control.

Take `CN(C)CCCc1c2ccccc2nc2ccc(Cl)cc12`: the T/C was 117 % of control (dose: 12.5 mg/kg/injection, schedule: Q04DX003 (ip), vehicle: saline); 114 % of control (dose: 25.0 mg/kg/injection, schedule: Q04DX003 (ip), vehicle: saline); 108 % of control (dose: 50.0 mg/kg/injection, schedule: Q04DX003 (ip), vehicle: saline).

As to `CC12CCC(O)CC1CCC1C2CCC2(C)C(c3ccc(=O)oc3)C(O)C3OC132` (centres undefined), the T/C is 103 % of control (dose: 0.94 mg/kg/injection, schedule: Q01DX009 (ip), vehicle: Klucel (hydroxypropylcellulose) (HPC)); 98 % of control (dose: 1.87 mg/kg/injection, schedule: Q01DX009 (ip), vehicle: Klucel (hydroxypropylcellulose) (HPC)); 94 % of control (dose: 3.5 mg/kg/injection, schedule: Q01DX009 (ip), vehicle: Klucel (hydroxypropylcellulose) (HPC)).

On to `C[C@@H]1C[C@H]2[C@@H]3CCC4=CC(=O)C=C[C@]4(C)[C@@]3(F)[C@@H](O)C[C@]2(C)[C@@]1(O)C(=O)CO`, for which the T/C (dose: 3.12 mg/kg/injection, schedule: Q01DX009 (ip), vehicle: Klucel (hydroxypropylcellulose) (HPC)) is 114 % of control; the T/C (dose: 6.25 mg/kg/injection, schedule: Q01DX009 (ip), vehicle: Klucel (hydroxypropylcellulose) (HPC)) was 107 % of control; the T/C (dose: 12.5 mg/kg/injection, schedule: Q01DX009 (ip), vehicle: Klucel (hydroxypropylcellulose) (HPC)) is 114 % of control; the T/C (dose: 25.0 mg/kg/injection, schedule: Q01DX009 (ip), vehicle: Klucel (hydroxypropylcellulose) (HPC)) was 107 % of control; the T/C (dose: 50.0 mg/kg/injection, schedule: Q01DX009 (ip), vehicle: Klucel (hydroxypropylcellulose) (HPC)) is 115 % of control.

Consider `COC1=C(N2CC2)C(=O)C(OC)=C(N2CC2)C1=O`, for which the T/C is, setting by setting: (dose: 0.25 mg/kg/injection, schedule: Q01DX009 (ip), vehicle: other) 112 % of control and 118 % of control; (dose: 1.0 mg/kg/injection, schedule: Q01DX009 (ip), vehicle: saline with Tween-80) 179 % of control; (dose: 2.0 mg/kg/injection, schedule: Q01DX009 (ip), vehicle: other) 169 % of control.

`CC[CH2][Pb]([CH2]CC)([CH2]CC)[O]C(=O)C(Cl)(Cl)Cl`: the T/C is, setting by setting: (dose: 2.0 mg/kg/injection, schedule: Q01DX009 (ip), vehicle: Klucel (hydroxypropylcellulose) (HPC)) 120 % of control; (dose: 4.0 mg/kg/injection, schedule: Q01DX009 (ip), vehicle: Klucel (hydroxypropylcellulose) (HPC)) 112 % of control.

Consider `CCCCN(C)/N=N/c1[nH]ncc1C(=O)OCC`, for which the T/C (dose: 78.7 mg/kg/injection, schedule: Q01DX009 (ip), vehicle: carboxymethylcellulose (CMC)) was 109 % of control; the T/C (dose: 118.0 mg/kg/injection, schedule: Q01DX009 (ip), vehicle: carboxymethylcellulose (CMC)) was 118 % of control; the T/C (dose: 177.0 mg/kg/injection, schedule: Q01DX009 (ip), vehicle: carboxymethylcellulose (CMC)) is 118 % of control; the T/C (dose: 266.0 mg/kg/injection, schedule: Q01DX009 (ip), vehicle: carboxymethylcellulose (CMC)) is 109 % of control.

For the compound `CC(CC(O)c1ccccc1)c1ccccc1` (centres undefined), the T/C by setting is: (dose: 100.0 mg/kg/injection, schedule: Q01DX009 (ip), vehicle: Klucel (hydroxypropylcellulose) (HPC)) 102 % of control; (dose: 200.0 mg/kg/injection, schedule: Q01DX009 (ip), vehicle: Klucel (hydroxypropylcellulose) (HPC)) 100 % of control; (dose: 400.0 mg/kg/injection, schedule: Q01DX009 (ip), vehicle: Klucel (hydroxypropylcellulose) (HPC)) 92 % of control.

On to `CC(=O)Oc1[nH]c(=O)c2cccc3c2c1CCC3`, for which the T/C runs as follows: under setting [6], 106 % of control; under setting [7], 107 % of control; (dose: 100.0 mg/kg/injection, schedule: Q01DX009 (ip), vehicle: saline with Tween-80) 115 % of control; (dose: 200.0 mg/kg/injection, schedule: Q01DX009 (ip), vehicle: saline with Tween-80) 114 % of control; (dose: 400.0 mg/kg/injection, schedule: Q01DX009 (ip), vehicle: saline with Tween-80) 105 % of control.

`Cn1c(CC#N)c(C[N+](C)(C)C)c2ccccc21`: the T/C was 104 % of control (dose: 1.25 mg/kg/injection, schedule: Q01DX009 (ip), vehicle: saline with Tween-80); 86 % of control (dose: 2.5 mg/kg/injection, schedule: Q01DX009 (ip), vehicle: saline with Tween-80); 100 % of control (dose: 5.0 mg/kg/injection, schedule: Q01DX009 (ip), vehicle: saline with Tween-80).

`CC(CCC(=O)O)(c1cc(Cl)c(O)c(Cl)c1)c1cc(Cl)c(O)c(Cl)c1`: the T/C runs as follows: (dose: 25.0 mg/kg/injection, schedule: Q01DX009 (ip), vehicle: gum acacia) 98 % of control; (dose: 50.0 mg/kg/injection, schedule: Q01DX009 (ip), vehicle: gum acacia) 115 % of control; (dose: 100.0 mg/kg/injection, schedule: Q01DX009 (ip), vehicle: gum acacia) 122 % of control.

Consider `N=C(N)Sc1ccccn1`, for which the T/C runs as follows: under setting [1], 95 % of control; (dose: 12.5 mg/kg/injection, schedule: Q01DX009 (ip), vehicle: suspension in saline) 98 % of control; under setting [2], 97 % of control; (dose: 25.0 mg/kg/injection, schedule: Q01DX009 (ip), vehicle: suspension in saline) 100 % of control; under setting [3], 100 % of control; (dose: 50.0 mg/kg/injection, schedule: Q01DX009 (ip), vehicle: suspension in saline) 92 % of control. The T/C by setting is: under setting [4], 98 % of control; (dose: 100.0 mg/kg/injection, schedule: Q01DX009 (ip), vehicle: suspension in saline) 92 % of control.

In the case of `Oc1c(Cl)c(Cl)c(Cl)c(Cl)c1Cl` (tested in a mixture with another compound), the T/C reads like this: (dose: 12.5 mg/kg/injection, schedule: Q01DX009 (ip), vehicle: saline with Tween-80) 107 % of control; (dose: 12.5 mg/kg/injection, schedule: Q04DX003 (ip), vehicle: saline with Tween-80) 122 % of control; under setting [6], 115 % of control; (dose: 25.0 mg/kg/injection, schedule: Q04DX003 (ip), vehicle: saline with Tween-80) 102 % of control; under setting [7], 121 % of control; (dose: 50.0 mg/kg/injection, schedule: Q04DX003 (ip), vehicle: saline with Tween-80) 102 % of control.

Regarding `COc1cc(C2=NCCc3cc4c(cc32)OCO4)cc(OC)c1OC`, the T/C by setting is: under setting [1], 112 % of control; under setting [2], 118 % of control; under setting [3], 104 % of control; under setting [4], 101 % of control.

In the case of `N/C=N/O`, the T/C is, setting by setting: under setting [2], 104 % of control; under setting [3], 111 % of control; under setting [4], 109 % of control; under setting [5], 117 % of control.

As for `O=c1cnn(C2OC(CO)C(O)C2O)c(=O)[nH]1` (centres undefined), the T/C (dose: 75.0 mg/kg/injection, schedule: Q01DX009 (ip), vehicle: Klucel (hydroxypropylcellulose) (HPC)) is 99 % of control and 100 % of control; the T/C (dose: 125.0 mg/kg/injection, schedule: Q03HX024 (ip), vehicle: water) is 116 % of control; the T/C (dose: 125.0 mg/kg/injection, schedule: Q03HX032 (ip), vehicle: water) is 119 % of control; the T/C (dose: 150.0 mg/kg/injection, schedule: Q01DX009 (ip), vehicle: Klucel (hydroxypropylcellulose) (HPC)) is 92 % of control and 101 % of control; the T/C (dose: 250.0 mg/kg/injection, schedule: Q03HX024 (ip), vehicle: water) is 124 % of control; the T/C (dose: 300.0 mg/kg/injection, schedule: Q01DX009 (ip), vehicle: Klucel (hydroxypropylcellulose) (HPC)) is 100 % of control and 102 % of control. In addition, the T/C is, setting by setting: (dose: 600.0 mg/kg/injection, schedule: Q01DX009 (ip), vehicle: Klucel (hydroxypropylcellulose) (HPC)) 101 % of control and 102 % of control; (dose: 1200.0 mg/kg/injection, schedule: Q01DX009 (ip), vehicle: Klucel (hydroxypropylcellulose) (HPC)) 99 % of control.
